Data: ChEMBL document CHEMBL5131491, “N6-modification of 7-Deazapurine nucleoside analogues as Anti-Trypanosoma cruzi and anti-Leishmania agents: Structure-activity relationship exploration and In vivo evaluation” (Eur J Med Chem, 2022)
The source made the active and inactive calls. The rule behind the calls is not given here.

Key:
[1] = Metabolic stability in human liver microsomes S9 fraction assessed as parent compound remaining at 5 uM incubated for 60 min in presence of UGT by liquid chromatography (reference value: 100 %); assay type: ADME, Microsome S9 fraction; details: read-out: Stability
[2] = Metabolic stability in hamster liver microsomes S9 fraction assessed as parent compound remaining at 5 uM incubated for 15 min in presence of UGT by liquid chromatography (reference value: 100 %); assay type: ADME, Cricetulus griseus, Microsome S9 fraction; details: chinese hamster, read-out: Stability
[3] = Acute toxicity in acute CD Swiss Webster mouse model infected with Trypanosoma cruzi Y strain assessed as survival rate at 25 mg/kg, po administered for 5 consecutive days measured after 55 days post treatment (reference value: 100 %); assay type: organism-based; details: in vivo, time 55 day
[4] = Metabolic stability in mouse liver microsomes S9 fraction assessed as parent compound remaining at 5 uM incubated for 60 min in presence of UGT by liquid chromatography (reference value: 100 %); assay type: ADME, Microsome S9 fraction; details: read-out: Stability
[5] = Metabolic stability in mouse liver microsomes S9 fraction assessed as parent compound remaining at 5 uM incubated for 30 mins in presence of NADPH by liquid chromatography (reference value: 100 %); assay type: ADME, Microsome S9 fraction; details: read-out: Stability
[6] = Metabolic stability in hamster liver microsomes S9 fraction assessed as parent compound remaining at 5 uM incubated for 30 min in presence of NADPH by liquid chromatography (reference value: 100 %); assay type: ADME, Cricetulus griseus, Microsome S9 fraction; details: chinese hamster, read-out: Stability
[7] = Cytotoxicity against Swiss mouse peritoneal macrophages assessed as reduction in cell viability measured after 5 days by microscopic analysis; assay type: toxicity, cell-based, Macrophage; details: time 5 day
[8] = Cytotoxicity against human MRC5 fibroblast cells assessed as reduction in cell viability measured after 3 days by fluorometry; assay type: toxicity, cell-based; details: time 3 day
Trypanosoma cruzi [9] = assay: Antitrypanosomal activity against Trypanosoma cruzi Y strain infected in acute CD Swiss Webster mouse model assessed as reduction in parasitemia at 50 mg/kg, po qd for 5 consecutive days by light microscopy relative to control; assay type: functional; parameters: scale not given: the % may be the effect or the level left; details: time 5 day
[10] = Metabolic stability in hamster liver microsomes S9 fraction assessed as parent compound remaining at 5 uM incubated for 60 min in presence of NADPH by liquid chromatography (reference value: 100 %); assay type: ADME, Cricetulus griseus, Microsome S9 fraction; details: chinese hamster, read-out: Stability
Leishmania infantum [11] = assay: Antileishmanial activity against extracellular Leishmania infantum […] PMM promastigotes assessed as reduction in parasite growth incubated for 96 hrs by light microscopy; assay type: functional, organism-based
Trypanosoma cruzi [12] = assay: Antitrypanosomal activity against Trypanosoma cruzi Y strain infected in acute CD Swiss Webster mouse model assessed as reduction in parasitemia at 12.5 to 25 mg/kg, po qd administered for 5 consecutive days by light microscopy; assay type: functional, organism-based; details: dose 12.5-25 mg/kg, time 5.0 day
[13] = Metabolic stability in mouse liver microsomes S9 fraction assessed as parent compound remaining at 5 uM incubated for 60 mins in presence of NADPH by liquid chromatography (reference value: 100 %); assay type: ADME, Microsome S9 fraction; details: read-out: Stability
[14] = Metabolic stability in human liver microsomes S9 fraction assessed as parent compound remaining at 5 uM incubated for 30 min in presence of NADPH by liquid chromatography (reference value: 100 %); assay type: ADME, Microsome S9 fraction; details: read-out: Stability
[15] = Toxicity in early curative hamster model assessed as severe toxicity at 50 mg/kg, po qd for 4 days measured on day 5; assay type: organism-based, Cricetulus griseus; details: chinese hamster, in vivo, 120 h, time 5 day
[16] = Metabolic stability in mouse liver microsomes S9 fraction assessed as parent compound remaining at 5 uM incubated for 30 min in presence of UGT by liquid chromatography (reference value: 100 %); assay type: ADME, Microsome S9 fraction; details: read-out: Stability
[17] = Metabolic stability in hamster liver microsomes S9 fraction assessed as parent compound remaining at 5 uM incubated for 15 min in presence of NADPH by liquid chromatography (reference value: 100 %); assay type: ADME, Cricetulus griseus, Microsome S9 fraction; details: chinese hamster, read-out: Stability
[18] = Metabolic stability in mouse liver microsomes S9 fraction assessed as parent compound remaining at 5 uM incubated for 15 min in presence of UGT by liquid chromatography (reference value: 100 %); assay type: ADME, Microsome S9 fraction; details: read-out: Stability
[19] = Metabolic stability in human liver microsomes S9 fraction assessed as parent compound remaining at 5 uM incubated for 15 min in presence of NADPH by liquid chromatography (reference value: 100 %); assay type: ADME, Microsome S9 fraction; details: read-out: Stability
[20] = Metabolic stability in mouse liver microsomes S9 fraction assessed as parent compound remaining at 5 uM incubated for 15 mins in presence of NADPH by liquid chromatography (reference value: 100 %); assay type: ADME, Microsome S9 fraction; details: read-out: Stability
Leishmania infantum [21] = assay: Antileishmanial activity against intracellular Leishmania infantum MHOM/MA(BE)/67 amastigotes infected in Swiss mouse peritoneal macrophages assessed as parasite growth inhibition incubated for 5 days by giemsa staining based microscopic analysis; assay type: functional, organism-based; details: MHOM/MA(BE)/67, Macrophage, 120 h
[22] = Selectivity index, ratio of CC50 for human MRC-5 cells to EC50 for antitrypanosomal activity against intracellular Trypanosoma cruzi Tulahuen amastigotes expressing CL2 beta-galactosidase in human MRC5 cells; assay type: toxicity, cell-based; details: read-out: Selectivity Index
Trypanosoma cruzi [23] = assay: Antitrypanosomal activity against bloodstream extracellular Trypanosoma cruzi Y strain trypomastigotes assessed as reduction in parasite growth incubated for 96 hrs by light microscope; assay type: functional, organism-based
[24] = Toxicity in acute CD Swiss Webster mouse model infected with Trypanosoma cruzi Y strain assessed as animal survival at 50 mg/kg, po qd for 5 consecutive days measured daily for upto 30 days post-treatment; assay type: organism-based; details: in vivo, 720 h, time < 30 day
[25] = Acute toxicity in acute CD Swiss Webster mouse model infected with Trypanosoma cruzi Y strain assessed as weight loss at 12.5 to 50 mg/kg, po qd administered for 5 consecutive days measured once a week; assay type: organism-based; details: in vivo, 120 h, dose 12.5-50 mg/kg, time 5 day
Trypanosoma cruzi [26] = assay: Antitrypanosomal activity against Trypanosoma cruzi Y strain infected in acute CD Swiss Webster mouse model assessed as reduction in parasitemia at 25 mg/kg, po qd for 5 consecutive days by light microscopy relative to control; assay type: functional; parameters: scale not given: the % may be the effect or the level left; details: time 5 day
[27] = Acute toxicity in acute CD Swiss Webster mouse model infected with Trypanosoma cruzi Y strain assessed as maximum tolerated dose administered orally once daily for 5 consecutive days; details: in vivo, route po, time 5 day
Leishmania infantum [28] = assay: Antileishmanial activity against extracellular Leishmania infantum […] MIL5C13 promastigotes assessed as reduction in parasite growth incubated for 96 hrs by light microscopy; assay type: functional, organism-based
Trypanosoma cruzi [29] = assay: Antitrypanosomal activity against intracellular Trypanosoma cruzi Tulahuen amastigotes expressing CL2 beta-galactosidase in human MRC5 cells assessed as parasite growth inhibition using chlorophenol red beta-D-galactopyranoside as substrate treated for 7 days by spectrophotometry; assay type: functional, organism-based; details: MRC5, 168 h
[30] = Toxicity in early curative hamster model assessed as weight loss at 50 mg/kg, po qd for 4 days measured on day 2; assay type: organism-based, Cricetulus griseus; details: chinese hamster, in vivo, 96 h, time 4 day
[31] = Metabolic stability in hamster liver microsomes S9 fraction assessed as parent compound remaining at 5 uM incubated for 60 min in presence of UGT by liquid chromatography (reference value: 100 %); assay type: ADME, Cricetulus griseus, Microsome S9 fraction; details: chinese hamster, 1 h
[32] = Metabolic stability in hamster liver microsomes S9 fraction assessed as parent compound remaining at 5 uM incubated for 30 min in presence of UGT by liquid chromatography (reference value: 100 %); assay type: ADME, Cricetulus griseus, Microsome S9 fraction; details: chinese hamster, read-out: Stability
[33] = Metabolic stability in human liver microsomes S9 fraction assessed as parent compound remaining at 5 uM incubated for 30 min in presence of UGT by liquid chromatography (reference value: 100 %); assay type: ADME, Microsome S9 fraction; details: read-out: Stability
[34] = Selectivity index, ratio of CC50 for Swiss mouse peritoneal macrophages to EC50 for antileishmanial activity against intracellular Leishmania infantum MHOM/MA(BE)/67 amastigotes infected in Swiss mouse peritoneal macrophages; assay type: toxicity, cell-based; details: read-out: Selectivity Index
Leishmania infantum [35] = assay: Antileishmanial activity against extracellular Leishmania infantum LEM3323-C14 promastigotes assessed as reduction in parasite growth incubated for 96 hrs by light microscope; assay type: functional, organism-based; details: LEM3323-C14, 96 h
[36] = Metabolic stability in human liver microsomes S9 fraction assessed as parent compound remaining at 5 uM incubated for 15 min in presence of UGT by liquid chromatography (reference value: 100 %); assay type: ADME, Microsome S9 fraction; details: read-out: Stability
[37] = Toxicity in early curative hamster model assessed as clinical symptoms of toxicity at 50 mg/kg, po qd for 4 days; assay type: organism-based, Cricetulus griseus; details: chinese hamster, in vivo, 96 h, time 4 day
[38] = Metabolic stability in human liver microsomes S9 fraction assessed as parent compound remaining at 5 uM incubated for 60 min in presence of NADPH by liquid chromatography (reference value: 100 %); assay type: ADME, Microsome S9 fraction; details: read-out: Stability
[39] = Acute toxicity in acute CD Swiss Webster mouse model infected with Trypanosoma cruzi Y strain assessed as survival rate at 12.5 mg/kg, po administered for 5 consecutive days measured after 55 days post treatment (reference value: 100 %); assay type: organism-based; details: in vivo, time 55 day
Trypanosoma cruzi [40] = assay: Antitrypanosomal activity against Trypanosoma cruzi Y strain infected in acute CD Swiss Webster mouse model assessed as reduction in parasitemia at 12.5 mg/kg, po qd for 5 consecutive days by light microscopy relative to control; assay type: functional; parameters: scale not given: the % may be the effect or the level left; details: time 5 day

With `CNc1ncnc2c1ccn2[C@@H]1O[C@H](CO)[C@@H](O)[C@H]1O` the remaining at 1 h, 5 µM [1] was 104%, the remaining at 0.25 h, 5 µM [2] was 102% and the survival at 1320 h [3] was 66.7%. For the same compound, the remaining at 1 h, 5 µM [4] was 98%, the remaining at 0.5 h, 5 µM [5] was 96% and the remaining at 0.5 h, 5 µM [6] was 93%. For the same compound, the CC50 at 120 h [7] was > 64000 nM, the CC50 at 72 h [8] was > 64000 nM and the Activity (Trypanosoma cruzi [9]) was 96%. The remaining at 1 h, 5 µM [10] was 103%, the EC50 (Leishmania infantum [11]) was 2000 nM and the Activity (Trypanosoma cruzi [12]) was “Active”. The remaining at 1 h, 5 µM [13] was 107%, the remaining at 0.5 h, 5 µM [14] was 95% and the Activity [15] was “Toxic”. The remaining at 0.5 h, 5 µM [16] was 105%, the remaining at 0.25 h, 5 µM [17] was 97% and the remaining at 0.25 h, 5 µM [18] was 103%. It also gave a remaining at 0.25 h, 5 µM [19] of 108%, a remaining at 0.25 h, 5 µM [20] of 96% and an EC50 (Leishmania infantum [21]) of 490 nM. The selectivity ratio [22] was > 142, the EC50 (Trypanosoma cruzi [23]) was > 24000 nM and the Survival [24] was “Toxic”. For the same compound, the Activity [25] was “Toxic”, the Activity (Trypanosoma cruzi [26]) was 89% and the MTD at 120 h [27] was 12.5 mg/kg/day. For the same compound, the EC50 (Leishmania infantum [28]) was 2380 nM, the EC50 (Trypanosoma cruzi [29]) was 450 nM and the Activity [30] was “Toxic”. For the same compound, the Stability [31] was 116%, the remaining at 0.5 h, 5 µM [32] was 102% and the remaining at 0.5 h, 5 µM [33] was 104%. The selectivity ratio [34] was > 131, the EC50 (Leishmania infantum [35]) was 8000 nM and the remaining at 0.25 h, 5 µM [36] was 99%. For the same compound, the Activity [37] was “Toxic”, the remaining at 1 h, 5 µM [38] was 105% and the survival at 1320 h [39] was 83.3%. It also gave an Activity (Trypanosoma cruzi [40]) of 75%.
